Measured values as given in article PMC10922394 (Journal of internal medicine, 2023).

Biological target: T1, rChAT (recombinant choline acetyltransferase) (Homo sapiens, UniProt P28329)
T1 sequence (P28329 119-748): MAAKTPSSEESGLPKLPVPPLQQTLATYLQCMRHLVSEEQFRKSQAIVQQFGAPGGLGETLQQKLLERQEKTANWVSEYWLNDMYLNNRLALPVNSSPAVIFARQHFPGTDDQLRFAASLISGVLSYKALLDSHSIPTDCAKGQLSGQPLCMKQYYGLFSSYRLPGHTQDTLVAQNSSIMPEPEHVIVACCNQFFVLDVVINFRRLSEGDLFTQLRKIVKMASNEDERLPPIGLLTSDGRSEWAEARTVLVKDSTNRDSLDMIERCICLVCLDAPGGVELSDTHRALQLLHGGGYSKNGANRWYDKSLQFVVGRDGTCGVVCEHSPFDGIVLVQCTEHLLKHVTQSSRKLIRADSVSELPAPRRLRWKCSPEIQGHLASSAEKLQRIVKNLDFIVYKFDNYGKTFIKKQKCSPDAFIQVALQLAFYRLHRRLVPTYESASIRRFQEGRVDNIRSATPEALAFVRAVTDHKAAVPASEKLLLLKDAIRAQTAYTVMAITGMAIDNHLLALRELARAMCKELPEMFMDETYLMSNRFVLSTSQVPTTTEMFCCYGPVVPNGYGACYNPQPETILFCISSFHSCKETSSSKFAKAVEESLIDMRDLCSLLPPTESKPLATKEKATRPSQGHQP
Assay: colorimetric ChAT assay
Assay type: biochemical

Q: For `C[N+](C)(C)CCC(=O)c1cccc2ccccc12` [alpha-NETA], which IC50 is on record?
A: The IC50 was 148 nM.
